Experimental data reported in patent US7976241B2, “Soil remediation method and composition” (priority 2006, dated 2011).

Key:
[1] = Chlorinated DNAPL dissolution in control sample without cosolvent-surfactant; assay type: physicochemical; conditions: in presence of DNAPL, no Citrus Burst-3, 50 g/L NaCl, 25° C., 48 hours
Description: A chlorinated solvent DNAPL was obtained from a site consisting of chlorinated solvents and chlorinated semi-volatile compounds. Composition of the chlorinated solvent DNAPL is presented based on determinations using USEPA Methods 8260 and 8270. An aliquot of the DNAPL was mixed with a suitable quantity of deionized water to determine the equilibrium solubility of the individual compounds in the presence of the DNAPL.
The data collected under the experimentation conditions presented in Table 2 were obtained at 25° C. with 60 rpm shaker table mixing for 48 hours. After the shaker was shut off, the samples sat quietly for 5 minutes before the supernatant was analyzed. DNAPLmax represents the maximum concentration of DNAPL that may dissolve, given the mass of DNAPL and the volume of water.
Carbon tetrachloride and tetrachloroethylene comprised more than 87 percent of the DNAPL. Being a saturated compound, carbon tetrachloride is generally a pervasive and difficult to degrade compound once introduced to the subsurface. […] After 48 hours of slowly mixing the DNAPL and water mixtures, the samples were allowed to sit for 5 minutes and then samples of the solubilized fraction of the mixture were collected and analyzed for VOCs using USEPA Method 8260. Samples from experiment number 1, 3, 5, 7 and 8 (control) were analyzed. […]

[2] = cited from earlier work

Row | Compound | Observed Solubility in Control Sample [1] [mg/L] | Pure Compound Aqueous Solubility [2]
1 | ClC(Cl)(Cl)Cl [Carbon Tetrachloride (CTC), Carbon Tetrachloride] | 100 | 129 mg/L
2 | Clc1c(Cl)c(Cl)c2c(Cl)c(Cl)c(Cl)c(Cl)c2c1Cl [Octachloronaphthalene (OCN), Octachloronaphthalene] | – | insoluble
